One compound from patent US9364479B2, “Use of a receptor-type kinase modulator for treating polycystic kidney disease” (SYMPHONY EVOLUTION, INC., priority 2010, dated 2016) can be followed below.

SMILES strings stand for the structures.

Data set [1] relates to Adrenergic, Alpha 1, Non-selective. Put plainly: NovaScreen assay. It counts as binding.
For another data set, the system named is GABA A, Agonist Site. Kind of data set: NovaScreen assay. It is filed as binding.
In data set [2] the test system is Potassium Channel, ATP-Sensitive. Kind of data set: NovaScreen assay. It counts as binding.
Another data set addresses T1, EphA2 (Homo sapiens, UniProt P29317).
T1 construct: Human, N598-; mM MgCl2, 3 mM MnCl2,; R890, N-His6; His6 (N)
Put plainly: Chemiluminescent kinase assay. It counts as biochemical.

The next data set addresses T2, ZAP-70 (Homo sapiens, UniProt P43403).
T2 construct: purchased MBL
Put plainly: Chemiluminescent kinase assay. It counts as biochemical. The protocol: A Luciferase-coupled chemiluminescence assay was used to measure EGFR and KDR (VEGFR2) activity. Kinase activity was measured as the percentage of ATP consumed following the kinase reaction using luciferase-luciferin-coupled chemiluminescence. Reactions were conducted in 384-well white, medium-binding microtiter plates (Greiner). […] The reaction mixture was incubated at room temperature for 4 h. Following the kinase reaction, a 20 μL aliquot of Kinase Glo (Promega) was added and luminescence signal was measured using a Victor2 plate reader (Perkin-Elmer). Total ATP consumption was limited to 50%.
(§1) Further screening was performed using the biochemical assay methods of Example 2. Additional description of the components and concentrations are summarized in Table 8, Table 9, and Table 10, below.

Data set [3] deals with HT-29 human tumor xenograft. Kind of data set: HT-29 xenograft, tumor growth. It counts as in vivo. To be noted: Mus musculus. On the procedure: The response of tumors to treatment was determined by comparing the mean tumor weight of the treatment group with the appropriate control group. Percentage inhibition of tumor growth was determined with the following formula: Percentage inhibition=100×[1−(Xf−Xo)/(Yf−Yo)], where Xf and Yf are the mean tumor weights of the treatment and control groups, respectively, on day f, and Xo and Yo are the mean tumor weights of treatment and control groups respectively, on day zero (staged tumor weights after grouping)

For data set [4] the following is noted: human, in vivo. The protocol:
Food effect on bioavailability was analyzed.

In another data set the target is Flt-4 (Homo sapiens, UniProt P35916). Put plainly: Flt-4 autophosphorylation ELISA, transfected COS cells. It is filed as cell-based. Also noted: expressed in transfected cells; host or cells: COS cells. To be noted: read-out: Cellular IC50, autophosphorylation. On the procedure:
The Flt-4 autophosphorylation ELISA utilized COS cells. Cells were seeded at 200,000 cells per well in 6-well plates in DMEM with 10% FBS and grown at 5% CO2 and 37° C. After 24 h growth, cells were transfected with 1 μg/well Flt-4 cDNA, using 3 μl FuGENE-6 (Roche). […] The cell monolayer was washed twice with cold PBS and harvested by scraping into 150 μl ice-cold lysis buffer. Cell lysates were centrifuged at 13,000 g for 15 min, diluted 1:10 in ice-cold PBS, and transferred to clear Streptavidin plates (Pierce) coated with anti-human […] (Flt-4) biotinylated goat IgG (2 μg/well, R&D Biosciences). After washing, anti-Flag M2 mouse IgG-HRP (Sigma 1 to 10,000 dilution) or anti phospho-tyrosine rabbit IgG-HRP (Zymed, 61-5820, 1:10,000) was used to detect total Flt-4 and phosphorylated Flt-4.
On the technique in general: ELISA stands for enzyme-linked immunosorbent assay.

Another data set concerns the target c-Kit (Homo sapiens, UniProt P10721). Put plainly: AlphaScreen kinase assay. It counts as biochemical. Also noted: Human, T544-; MgCl2, 3 mM MnCl2, 1 mM; V976, N-GST,; GST (N); purchased ProQinase. On the procedure: An AlphaScreen tyrosine kinase assay was used to measure ErbB2 and Flt-4 activity. Donor beads coated with streptavidin and acceptor beads coated with PY100 anti-phosphotyrosine antibody (Perkin-Elmer) were used. Biotinylated poly(Glu,Tyr) 4:1 was used as the substrate. Substrate phosphorylation was measured by luminescence following donor-acceptor bead addition followed by complex formation. Test compound, 3 μmol/L ATP, 3 nmol/L biotinylated poly(Glu,Tyr) 4:1, and 1 nmol/L ErbB2 (residues Q679-V1255 of human ErbB2, Proqinase) or Flt-4 (residues D725-R1298 of human Flt-4, Proqinase) were combined in a volume of 20 μL Assay Buffer (20 mM TrisHCl, pH 7.5, 10 mM MgCl2, 3 mM MnCl2, 1 mM DTT, 0.01% Triton) in a 384-well white, medium-binding microtiter plate (Greiner). Reaction mixtures were incubated for 1 h at room temperature. Reactions were quenched by addition of 10 μL of 15 to 30 μg/mL AlphaScreen bead suspension containing 75 mmol/L HEPES (pH 7.4), 300 mmol/L NaCl, 120 mmol/L EDTA, 0.3% bovine serum albumin, and 0.03% Tween 20. After 2 to 16 h of incubation at room temperature, plates were read using an AlphaQuest reader (Perkin-Elmer).
as §1

T1 sequence (P29317 598-890): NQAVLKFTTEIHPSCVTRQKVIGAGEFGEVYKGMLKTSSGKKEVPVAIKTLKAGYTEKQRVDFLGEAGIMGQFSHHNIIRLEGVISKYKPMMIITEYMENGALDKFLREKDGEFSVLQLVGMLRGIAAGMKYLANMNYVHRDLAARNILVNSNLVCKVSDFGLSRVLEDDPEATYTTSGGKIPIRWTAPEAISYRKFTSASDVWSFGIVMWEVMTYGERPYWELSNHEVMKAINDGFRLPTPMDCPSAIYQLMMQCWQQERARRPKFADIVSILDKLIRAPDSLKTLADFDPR
Sequence of Flt-4 (P35916 25-1363): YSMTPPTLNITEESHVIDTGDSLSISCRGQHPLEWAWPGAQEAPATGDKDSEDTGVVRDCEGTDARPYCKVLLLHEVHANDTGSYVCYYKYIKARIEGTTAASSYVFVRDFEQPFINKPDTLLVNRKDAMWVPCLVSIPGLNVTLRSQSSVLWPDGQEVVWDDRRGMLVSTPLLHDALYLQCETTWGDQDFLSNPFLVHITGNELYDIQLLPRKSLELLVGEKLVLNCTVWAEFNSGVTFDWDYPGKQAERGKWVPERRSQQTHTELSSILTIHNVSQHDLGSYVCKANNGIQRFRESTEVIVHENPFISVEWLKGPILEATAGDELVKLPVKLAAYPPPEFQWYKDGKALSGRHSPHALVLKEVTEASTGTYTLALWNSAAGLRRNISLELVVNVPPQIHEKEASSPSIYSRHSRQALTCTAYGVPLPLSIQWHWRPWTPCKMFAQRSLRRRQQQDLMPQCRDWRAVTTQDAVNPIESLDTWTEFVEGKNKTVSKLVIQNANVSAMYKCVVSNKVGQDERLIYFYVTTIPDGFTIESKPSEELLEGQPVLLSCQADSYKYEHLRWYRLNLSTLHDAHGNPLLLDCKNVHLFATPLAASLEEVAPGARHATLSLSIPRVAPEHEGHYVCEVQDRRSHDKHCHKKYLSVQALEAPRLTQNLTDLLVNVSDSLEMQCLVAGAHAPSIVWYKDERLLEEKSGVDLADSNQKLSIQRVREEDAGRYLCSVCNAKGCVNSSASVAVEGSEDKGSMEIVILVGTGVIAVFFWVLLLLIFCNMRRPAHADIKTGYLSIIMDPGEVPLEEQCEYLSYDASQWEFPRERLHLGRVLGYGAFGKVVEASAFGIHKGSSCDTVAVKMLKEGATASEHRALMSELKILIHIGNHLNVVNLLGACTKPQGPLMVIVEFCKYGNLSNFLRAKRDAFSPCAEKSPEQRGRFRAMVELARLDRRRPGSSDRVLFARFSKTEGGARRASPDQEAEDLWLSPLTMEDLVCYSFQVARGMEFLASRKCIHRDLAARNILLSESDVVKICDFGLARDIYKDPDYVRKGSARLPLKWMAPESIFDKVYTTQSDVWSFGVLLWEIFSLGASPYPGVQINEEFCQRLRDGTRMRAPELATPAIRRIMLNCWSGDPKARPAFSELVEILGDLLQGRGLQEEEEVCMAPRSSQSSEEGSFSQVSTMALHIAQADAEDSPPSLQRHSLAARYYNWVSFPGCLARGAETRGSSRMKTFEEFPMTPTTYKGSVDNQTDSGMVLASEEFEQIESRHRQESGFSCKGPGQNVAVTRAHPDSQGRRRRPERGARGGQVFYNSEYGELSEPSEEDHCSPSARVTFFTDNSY
Sequence of c-Kit (P10721 544-976): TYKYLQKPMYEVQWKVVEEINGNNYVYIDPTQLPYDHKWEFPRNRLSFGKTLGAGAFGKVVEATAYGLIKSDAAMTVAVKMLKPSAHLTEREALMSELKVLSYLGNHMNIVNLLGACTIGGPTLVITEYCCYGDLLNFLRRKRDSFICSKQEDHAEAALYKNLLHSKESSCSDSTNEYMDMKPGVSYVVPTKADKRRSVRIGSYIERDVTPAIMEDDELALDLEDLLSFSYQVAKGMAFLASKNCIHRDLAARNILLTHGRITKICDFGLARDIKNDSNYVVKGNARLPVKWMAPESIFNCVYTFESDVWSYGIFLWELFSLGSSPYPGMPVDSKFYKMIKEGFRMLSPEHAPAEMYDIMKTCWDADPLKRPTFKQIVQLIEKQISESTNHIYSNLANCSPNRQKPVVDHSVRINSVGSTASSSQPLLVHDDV
T2 sequence (P43403 whole entry): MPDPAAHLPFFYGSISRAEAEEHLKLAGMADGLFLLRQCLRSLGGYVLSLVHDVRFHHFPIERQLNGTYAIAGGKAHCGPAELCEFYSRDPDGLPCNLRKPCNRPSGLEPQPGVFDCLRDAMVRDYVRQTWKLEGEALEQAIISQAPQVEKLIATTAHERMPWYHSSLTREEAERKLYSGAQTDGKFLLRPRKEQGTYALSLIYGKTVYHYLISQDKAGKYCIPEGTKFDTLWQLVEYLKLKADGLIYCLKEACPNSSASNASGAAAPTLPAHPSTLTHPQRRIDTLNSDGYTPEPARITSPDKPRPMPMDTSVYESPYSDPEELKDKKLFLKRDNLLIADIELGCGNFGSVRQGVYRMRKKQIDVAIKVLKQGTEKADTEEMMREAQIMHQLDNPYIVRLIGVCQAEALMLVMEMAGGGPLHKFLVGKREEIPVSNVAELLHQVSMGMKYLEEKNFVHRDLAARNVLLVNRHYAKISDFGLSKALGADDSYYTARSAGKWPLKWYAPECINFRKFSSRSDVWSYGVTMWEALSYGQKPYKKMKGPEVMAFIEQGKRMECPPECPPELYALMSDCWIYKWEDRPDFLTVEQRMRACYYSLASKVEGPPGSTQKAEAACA

With `COc1cc2c(Nc3ccc(Cl)c(Cl)c3F)ncnc2cc1OC[C@@H]1C[C@@H]2CN(C)C[C@@H]2C1` [XL-647, N-(3,4-dichloro-2-fluorophenyl)-7-({[(3aR,5r,6aS)-2-methyloctahydrocyclopenta[c]pyrrol-5-yl]methyl}oxy)-6-(methyloxy)quinazolin-4-amine], the “Inhibition, 10 μM XL-647” value in data set [1] is 49.40%; in the data set with GABA A, Agonist Site it was 1.07%; in data set [2], 5.02%. For the same compound, the IC50 – broadly, the concentration at which inhibition is half-maximal – against EphA2 worked out at 6.8 ± 0.8 nM; on ZAP-70 it was 7810 ± 655 nM; on Flt-4 it was 90 nM; against c-Kit, 132 ± 8.2 nM. Also, the ED50 – broadly, the dose that gives a 50% effect, or the effect in half of the subjects – in data set [3] (HT-29, qd × 14) worked out at 20.2 mg/kg; in data set [3] (HT-29, qd × 28), 16 mg/kg. In data set [4], the “AUC increase in the presence of food” value is “approximately 18%”. Also, the “Cmax increase in the presence of food” value in [4] is reported as “about 5%”.
